Key:
Assay type in all cases: cell-based
human TLR7 = biological target: T1, human TLR7 (Homo sapiens, UniProt Q9NYK1); test: TLR7 inhibition reporter assay (HEK-Blue SEAP); conditions: HEK-Blue cells overexpressing human TLR7, stimulated with gardiquimod 7.5 µM, 22 h incubation
T1 construct: host or cells: HEK-Blue cells
T1 sequence (Q9NYK1 27-1049): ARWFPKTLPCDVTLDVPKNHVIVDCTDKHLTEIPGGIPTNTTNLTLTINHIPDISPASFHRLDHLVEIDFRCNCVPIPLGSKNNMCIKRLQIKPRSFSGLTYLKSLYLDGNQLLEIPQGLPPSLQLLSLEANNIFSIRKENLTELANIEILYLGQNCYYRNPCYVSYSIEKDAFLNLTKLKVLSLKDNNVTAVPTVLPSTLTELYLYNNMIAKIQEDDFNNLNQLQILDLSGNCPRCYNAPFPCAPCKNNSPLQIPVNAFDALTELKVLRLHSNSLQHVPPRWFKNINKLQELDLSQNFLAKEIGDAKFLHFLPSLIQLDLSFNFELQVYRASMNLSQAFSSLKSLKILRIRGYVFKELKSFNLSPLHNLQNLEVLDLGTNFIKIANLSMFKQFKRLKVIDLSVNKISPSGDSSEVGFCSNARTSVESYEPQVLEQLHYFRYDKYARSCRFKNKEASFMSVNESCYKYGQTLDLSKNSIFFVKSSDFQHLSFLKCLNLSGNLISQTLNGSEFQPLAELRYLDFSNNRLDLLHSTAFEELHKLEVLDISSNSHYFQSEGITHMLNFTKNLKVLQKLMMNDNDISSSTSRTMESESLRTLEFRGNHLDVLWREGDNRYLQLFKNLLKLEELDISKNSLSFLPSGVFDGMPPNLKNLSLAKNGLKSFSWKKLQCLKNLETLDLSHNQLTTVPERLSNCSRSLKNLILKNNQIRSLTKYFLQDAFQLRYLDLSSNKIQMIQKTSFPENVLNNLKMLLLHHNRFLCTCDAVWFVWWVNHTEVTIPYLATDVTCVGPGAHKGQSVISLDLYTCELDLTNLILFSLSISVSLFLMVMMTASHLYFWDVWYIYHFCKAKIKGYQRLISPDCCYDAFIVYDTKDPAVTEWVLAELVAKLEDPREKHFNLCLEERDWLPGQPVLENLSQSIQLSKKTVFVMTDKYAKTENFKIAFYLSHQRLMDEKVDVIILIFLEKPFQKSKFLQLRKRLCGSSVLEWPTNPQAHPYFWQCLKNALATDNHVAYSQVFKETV
Method: (§1) HEK-Blue™-cells (Invivogen) overexpressing human TLR7, TLR8 or TLR9 receptors were used for screening inhibitors of these receptors using an inducible SEAP (secreted embryonic alkaline phosphatase) reporter gene under the control of the IFN-β minimal promoter fused to five NF-κB and AP-1-binding sites. Briefly, cells are seeded into Greiner 384 well plates (15000 cells per well for TLR7, 20,000 for TLR8 and 25,000 for TLR9) and then treated with test compounds in DMSO to yield a final dose response concentration range of 0.05 nM - 50 µM. After a 30 minute compound pre-treatment at room temperature, the cells are then stimulated with a TLR7 ligand (gardiquimod at a final concentration of 7.5 µM), TLR8 ligand (R848 at a final concentration of 15.9 µM) or TLR9 ligand (ODN2006 at a final concentration of 5 nM) to activate NF-κB and AP-1 which induce the production of SEAP. After a 22 h incubation at 37°C, 5% CO2, SEAP levels are determined with the addition of HEK-Blue™ Detection reagent (Invivogen), a cell culture medium that allows for detection of SEAP, according to manufacturer's specifications. The percent inhibition is determined as the % reduction in the HEK-Blue signal present in wells treated with agonist plus DMSO alone compared to wells treated with a known inhibitor.

human TLR8 = biological target: T2, human TLR8 (Homo sapiens, UniProt Q9NR97); test: TLR8 inhibition reporter assay (HEK-Blue SEAP); conditions: HEK-Blue cells overexpressing human TLR8, stimulated with R848 15.9 µM, 22 h incubation
T2 construct: host or cells: HEK-Blue cells
T2 sequence (Q9NR97 27-1041): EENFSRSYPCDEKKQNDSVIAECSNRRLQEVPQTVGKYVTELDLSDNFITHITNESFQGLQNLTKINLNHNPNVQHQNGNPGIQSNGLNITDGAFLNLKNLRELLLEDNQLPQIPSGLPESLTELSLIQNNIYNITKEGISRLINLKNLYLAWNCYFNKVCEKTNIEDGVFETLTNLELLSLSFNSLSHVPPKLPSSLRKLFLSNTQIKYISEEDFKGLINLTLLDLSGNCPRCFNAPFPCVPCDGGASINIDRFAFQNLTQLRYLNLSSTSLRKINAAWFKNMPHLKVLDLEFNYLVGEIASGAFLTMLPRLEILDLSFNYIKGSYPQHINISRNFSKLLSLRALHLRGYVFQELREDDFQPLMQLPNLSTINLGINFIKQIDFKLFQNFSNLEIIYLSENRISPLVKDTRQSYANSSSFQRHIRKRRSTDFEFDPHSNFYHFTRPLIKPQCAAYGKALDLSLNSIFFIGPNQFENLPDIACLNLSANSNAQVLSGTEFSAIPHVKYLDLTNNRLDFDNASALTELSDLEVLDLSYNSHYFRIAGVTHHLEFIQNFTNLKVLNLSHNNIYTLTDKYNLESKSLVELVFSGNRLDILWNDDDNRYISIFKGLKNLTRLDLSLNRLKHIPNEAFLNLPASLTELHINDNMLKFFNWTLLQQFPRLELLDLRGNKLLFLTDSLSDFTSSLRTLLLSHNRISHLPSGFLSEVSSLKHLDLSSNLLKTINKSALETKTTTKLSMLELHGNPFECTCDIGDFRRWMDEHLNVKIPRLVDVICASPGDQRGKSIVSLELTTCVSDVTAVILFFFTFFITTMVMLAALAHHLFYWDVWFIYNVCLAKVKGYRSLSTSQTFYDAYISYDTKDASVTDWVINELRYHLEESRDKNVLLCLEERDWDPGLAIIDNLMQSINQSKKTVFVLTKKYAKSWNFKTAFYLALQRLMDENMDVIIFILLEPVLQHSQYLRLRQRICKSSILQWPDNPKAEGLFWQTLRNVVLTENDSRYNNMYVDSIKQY
Method: as §1

human TLR9 = biological target: T3, human TLR9 (Homo sapiens, UniProt Q9NR96); test: TLR9 inhibition reporter assay (HEK-Blue SEAP); conditions: HEK-Blue cells overexpressing human TLR9, stimulated with ODN2006 5 nM, 22 h incubation
T3 construct: host or cells: HEK-Blue cells
T3 sequence (Q9NR96 26-1032): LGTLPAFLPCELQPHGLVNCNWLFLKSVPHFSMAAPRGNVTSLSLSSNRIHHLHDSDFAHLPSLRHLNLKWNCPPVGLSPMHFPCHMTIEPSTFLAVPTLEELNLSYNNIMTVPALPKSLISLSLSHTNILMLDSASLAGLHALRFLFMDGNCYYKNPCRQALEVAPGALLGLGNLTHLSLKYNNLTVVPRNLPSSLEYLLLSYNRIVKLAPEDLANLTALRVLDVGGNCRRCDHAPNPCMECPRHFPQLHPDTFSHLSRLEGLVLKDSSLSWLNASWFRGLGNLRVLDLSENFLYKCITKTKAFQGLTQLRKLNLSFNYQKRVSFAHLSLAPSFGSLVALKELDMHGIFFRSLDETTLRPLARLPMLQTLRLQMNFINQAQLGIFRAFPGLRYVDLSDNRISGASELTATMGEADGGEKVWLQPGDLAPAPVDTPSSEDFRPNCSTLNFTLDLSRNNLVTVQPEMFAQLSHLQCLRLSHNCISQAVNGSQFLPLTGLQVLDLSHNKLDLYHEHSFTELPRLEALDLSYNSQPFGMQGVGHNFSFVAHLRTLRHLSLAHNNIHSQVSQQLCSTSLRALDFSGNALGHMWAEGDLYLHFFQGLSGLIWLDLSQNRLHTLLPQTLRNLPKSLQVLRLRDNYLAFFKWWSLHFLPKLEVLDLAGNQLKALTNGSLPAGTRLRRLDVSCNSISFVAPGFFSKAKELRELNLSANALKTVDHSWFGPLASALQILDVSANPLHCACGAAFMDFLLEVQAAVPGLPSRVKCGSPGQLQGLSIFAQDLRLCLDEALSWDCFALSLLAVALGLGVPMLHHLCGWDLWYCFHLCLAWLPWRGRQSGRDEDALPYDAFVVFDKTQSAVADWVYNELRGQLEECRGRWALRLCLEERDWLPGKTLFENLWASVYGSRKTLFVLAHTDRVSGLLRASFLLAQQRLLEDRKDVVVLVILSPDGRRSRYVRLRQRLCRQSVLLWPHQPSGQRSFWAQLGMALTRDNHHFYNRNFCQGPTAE
Method: as §1

Compound Cc1c(-c2cc(C)c3c(c2)[nH]c2ccc(C4CCN(CC(C)(C)O)CC4)cc23)cn(C)c(=O)c1C [Example 18, 5-(6-(1-(2-Hydroxy-2-methylpropyl)piperidin-4-yl)-4-methyl-9H-carbazol-2-yl)-1,3,4-trimethylpyridin-2(1H)-one] has an IC50 (human TLR7) of 3.2 nM, an IC50 (human TLR8) of 0.9 nM and an IC50 (human TLR9) of 650 nM.

In the case of Cc1cc(-c2cc(C)c3ncnn3c2)cc2[nH]c3ccc(C4CCN(CC(C)(C)O)CC4)cc3c12 [Example 19], the IC50 (human TLR7) is reported as 1.8 nM, the IC50 (human TLR8) is reported as 4 nM and the IC50 (human TLR9) is reported as 416 nM.

In the case of COc1cc(-c2cc(C)c3c(c2)[nH]c2ccc(C4CCN(CC(C)(C)O)CC4)cc23)cn2ncnc12 [Example 20], the IC50 (human TLR7) is reported as 1.9 nM, the IC50 (human TLR8) is reported as 2.1 nM and the IC50 (human TLR9) is reported as 224 nM.

Cc1cc(-c2cc(C)c3c(c2)[nH]c2ccc(C4CCN(CC(C)(C)O)CC4)cc23)cc(C)n1 [Example 21] gave an IC50 (human TLR7) of 1.5 nM, an IC50 (human TLR8) of 12 nM and an IC50 (human TLR9) of 60 nM.

In the case of Cc1cc2c(cc1-c1cc(C)c3ncnn3c1)[nH]c1ccc(C3CCN(CC(C)(C)O)CC3)cc12 [Example 22], the IC50 (human TLR7) is reported as 1.6 nM, the IC50 (human TLR8) is reported as 0.7 nM and the IC50 (human TLR9) is reported as 342 nM.

COc1cc(-c2cc3[nH]c4ccc(C5CCN(CC(C)(C)O)CC5)cc4c3cc2C)cn2ncnc12 [Example 23] was tested, and the IC50 (human TLR7) was 4.1 nM, the IC50 (human TLR8) was 0.9 nM and the IC50 (human TLR9) was 259 nM.

For Cc1cc2c(cc1-c1cn(C)c(=O)c(C)c1C)[nH]c1ccc(C3CCN(CC(C)(C)O)CC3)cc12 [Example 24], the IC50 (human TLR7) was 68 nM, the IC50 (human TLR8) was 1.5 nM and the IC50 (human TLR9) was 388 nM.

COc1cc(-c2cc3[nH]c4ccc(C5CCN(CC(C)(C)O)CC5)cc4c3c(C)c2C)cn2ncnc12 [Example 25] showed an IC50 (human TLR7) of 1.8 nM, an IC50 (human TLR8) of 0.4 nM and an IC50 (human TLR9) of 264 nM.

In the case of COc1cc(-c2cc3[nH]c4ccc(C5CCCNC5)cc4c3c(C)c2C)cn2ncnc12 (stereo not drawn) [Example 26, 2-(8-methoxy-[1,2,4]triazolo[1,5-a]pyridin-6-yl)-3,4-dimethyl-6-(piperidin-3-yl)-9H-carbazole], the IC50 (human TLR7) is reported as 1.3 nM, the IC50 (human TLR8) is reported as 1.6 nM and the IC50 (human TLR9) is reported as 271 nM.

In the case of COc1cc(-c2cc3[nH]c4ccc(C5CCCN(C(=O)CN(C)C)C5)cc4c3c(C)c2C)cn2ncnc12 (stereo not drawn) [Example 27, 2-(dimethylamino)-1-(3-(7-(8-methoxy-[1,2,4]triazolo[1,5-a]pyridin-6-yl)-5,6-dimethyl-9H-carbazol-3-yl)piperidin-1-yl)ethan-1-one], the IC50 (human TLR7) is reported as 3.3 nM, the IC50 (human TLR8) is reported as 3.8 nM and the IC50 (human TLR9) is reported as 1170 nM.

For COc1cc(-c2cc3[nH]c4ccc(C5CCCN(C6CCOCC6)C5)cc4c3c(C)c2C)cn2ncnc12 (stereo not drawn) [Example 28, 2-(8-methoxy-[1,2,4]triazolo[1,5-a]pyridin-6-yl)-3,4-dimethyl-6-(1-(tetrahydro-2H-pyran-4-yl)piperidin-3-yl)-9H-carbazole], the IC50 (human TLR7) was 7.8 nM, the IC50 (human TLR8) was 0.7 nM and the IC50 (human TLR9) was 523 nM.

In the case of COc1cc(-c2cc3[nH]c4ccc(C5CNC5)cc4c3c(C)c2C)cn2ncnc12 [Example 29, 6-(azetidin-3-yl)-2-(8-methoxy-[1,2,4]triazolo[1,5-a]pyridin-6-yl)-3,4-dimethyl-9H-carbazole], the IC50 (human TLR7) is reported as 3.1 nM, the IC50 (human TLR8) is reported as 1 nM and the IC50 (human TLR9) is reported as 228 nM.

COc1cc(-c2cc3[nH]c4ccc(C5CN(CCS(C)(=O)=O)C5)cc4c3c(C)c2C)cn2ncnc12 [Example 30, 2-(8-methoxy-[1,2,4]triazolo[1,5-a]pyridin-6-yl)-3,4-dimethyl-6-(1-(2-(methylsulfonyl)ethyl)azetidin-3-yl)-9H-carbazole] gave an IC50 (human TLR7) of 5.5 nM, an IC50 (human TLR8) of 1 nM and an IC50 (human TLR9) of 813 nM.

Work on COc1cc(-c2cc3[nH]c4ccc(C5CCCN(CC(C)(C)O)C5)cc4c3c(C)c2C)cn2ncnc12 (stereo not drawn) [Example 31] yielded an IC50 (human TLR7) of 8.1 nM, an IC50 (human TLR8) of 1.2 nM and an IC50 (human TLR9) of 587 nM.

COc1cc(-c2cc3[nH]c4ccc(C5CCCN(CCS(C)(=O)=O)C5)cc4c3c(C)c2C)cn2ncnc12 (stereo not drawn) [Example 32] gave an IC50 (human TLR7) of 9.4 nM, an IC50 (human TLR8) of 2 nM and an IC50 (human TLR9) of 802 nM.

For COc1cc(-c2cc3[nH]c4ccc(C5CCCN(C6COC6)C5)cc4c3c(C)c2C)cn2ncnc12 (stereo not drawn) [Example 33], the IC50 (human TLR7) was 15.5 nM, the IC50 (human TLR8) was 2.2 nM and the IC50 (human TLR9) was 1230 nM.

Compound COc1cc(-c2cc3[nH]c4ccc(C5CCCN(CC#N)C5)cc4c3c(C)c2C)cn2ncnc12 (stereo not drawn) [Example 34] has an IC50 (human TLR7) of 1.3 nM, an IC50 (human TLR8) of 2.5 nM and an IC50 (human TLR9) of 321 nM.

COc1cc(-c2cc3[nH]c4ccc(C5CN(C(=O)CN(C)C)C5)cc4c3c(C)c2C)cn2ncnc12 [Example 35] gave an IC50 (human TLR7) of 4.5 nM, an IC50 (human TLR8) of 3.3 nM and an IC50 (human TLR9) of 845 nM.
